For one data set, the system named is PEA3. The experiment in a line: PEA3 expression after FUT treatment. It is filed as cell-based, human. The following applies: MDAPanc-28, over time.
The next data set has as its system caspase 8. The experiment in a line: Western blot of caspase 8 activation. It is filed as cell-based, human. The procedure:
The present inventors examined whether apoptosis signaling cascade is triggered with the elevation of TNFRI expression induced by FUT treatment, using caspase 8 as an indicator. Cytoplasmic fraction was prepared from the human pancreas cancer cell line MDAPanc-28 treated with various concentrations of FUT for 24 hours. Western blot was performed and subjected to the detection with anti-caspase 8 antibody (Santa Cruz Biotechnology) (FIG. 6-a). Western blot was performed to examine temporal changes in the expression of caspase 8, p-FADD, Bid and jBid under a constant concentration of FUT (80 μg/ml) at short intervals from 0 to 24 hours of treatment (FIGS. 6-b, 6-c and 6-d). Anti-FADD antibody was obtained from Santa Cruz Biotechnology and anti-Bid antibody was obtained from BD Pharmingen.
After the following treatment on the human pancreas cancer cell line MDAPanc-28, plasmatic compartment was prepared and Western blot was performed to examine the expression of phosphorylated FADD, caspase 8, NF-κB and IκBα. […] The same was true for IκBα expression (FIG. 7-c).

Data set [1] has as its system human pancreas cancer cell line MDAPanc-28. The experiment in a line: MTT assay of cell survival rate / living cell ratio. In kind it is cell-based. The method, then: The present inventors examined the concomitant effect of FUT and TNF-α on apoptosis in cancer cells. After treatment with TNF-α for 24 hours, the human pancreas cancer cell line MDAPanc-28 was further cultured for 24 hours with various concentrations of FUT being added. Cells prepared were then subjected to an MTT assay according to the method generally known to calculate the cell survival rates. Also, DNA was extracted to perform a DNA fragmentation assay.
More specifically, with regard to the MTT assay, each well was seeded with 2000 cells per 100 μl of culture medium in a 96-well microtiterplate, followed by the above mentioned treatment. After plate centrifugation, each well received 5 mg/ml of MTT (Sigma) PBS solution instead of culture medium and was incubated for 4 hours at 37° C. After removing the supernatant, 100 μl of DMSO were added to dissolve the cells. The absorbance of the samples was measured at 570 nm by using a microplate reader. 8 wells were subjected to the same condition in this experiment. Two independent experiments were performed, and the average was calculated.
However, the agents are of different types with different mechanisms of action. Therefore, the present inventors examined the effect of each agent on the living cell ratio in the human pancreas cancer cell line MDAPanc-28 singularly. After being treated with each agent for 24 hours and 48 hours, the human pancreas cancer cell line MDAPanc-28 was subjected to a MTT assay. The MTT assay was performed by the method described in Example 9.
In general terms: Tetrazolium dyes change colour on reduction, which living cells bring about.

In another data set the target is T1, IKK2 (Homo sapiens, UniProt O14920).
T1 construct: endogenous in cells; host or cells: MDAPanc-28 (human pancreas cancer cell line)
T1 sequence (O14920 whole entry): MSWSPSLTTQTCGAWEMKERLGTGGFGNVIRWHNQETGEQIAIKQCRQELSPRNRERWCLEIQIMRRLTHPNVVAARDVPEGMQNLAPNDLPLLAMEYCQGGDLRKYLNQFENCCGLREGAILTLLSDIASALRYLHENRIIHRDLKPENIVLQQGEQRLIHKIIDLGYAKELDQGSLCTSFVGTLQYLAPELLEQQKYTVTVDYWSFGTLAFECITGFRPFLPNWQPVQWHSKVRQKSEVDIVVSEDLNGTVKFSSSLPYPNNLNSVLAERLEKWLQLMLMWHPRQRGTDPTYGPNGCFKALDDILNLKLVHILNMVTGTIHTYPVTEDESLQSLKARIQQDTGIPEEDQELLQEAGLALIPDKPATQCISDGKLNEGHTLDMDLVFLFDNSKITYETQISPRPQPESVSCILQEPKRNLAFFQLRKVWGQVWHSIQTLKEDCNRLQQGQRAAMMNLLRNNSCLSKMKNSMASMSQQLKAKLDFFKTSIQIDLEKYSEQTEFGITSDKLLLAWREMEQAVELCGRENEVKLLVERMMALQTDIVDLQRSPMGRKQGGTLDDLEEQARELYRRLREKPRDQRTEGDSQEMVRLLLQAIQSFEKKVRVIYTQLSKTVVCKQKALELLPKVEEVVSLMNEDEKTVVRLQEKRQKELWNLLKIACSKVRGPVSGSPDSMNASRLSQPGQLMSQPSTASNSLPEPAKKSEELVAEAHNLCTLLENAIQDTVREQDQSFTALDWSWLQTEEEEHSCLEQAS
T1 sequence (O15111 whole entry partner): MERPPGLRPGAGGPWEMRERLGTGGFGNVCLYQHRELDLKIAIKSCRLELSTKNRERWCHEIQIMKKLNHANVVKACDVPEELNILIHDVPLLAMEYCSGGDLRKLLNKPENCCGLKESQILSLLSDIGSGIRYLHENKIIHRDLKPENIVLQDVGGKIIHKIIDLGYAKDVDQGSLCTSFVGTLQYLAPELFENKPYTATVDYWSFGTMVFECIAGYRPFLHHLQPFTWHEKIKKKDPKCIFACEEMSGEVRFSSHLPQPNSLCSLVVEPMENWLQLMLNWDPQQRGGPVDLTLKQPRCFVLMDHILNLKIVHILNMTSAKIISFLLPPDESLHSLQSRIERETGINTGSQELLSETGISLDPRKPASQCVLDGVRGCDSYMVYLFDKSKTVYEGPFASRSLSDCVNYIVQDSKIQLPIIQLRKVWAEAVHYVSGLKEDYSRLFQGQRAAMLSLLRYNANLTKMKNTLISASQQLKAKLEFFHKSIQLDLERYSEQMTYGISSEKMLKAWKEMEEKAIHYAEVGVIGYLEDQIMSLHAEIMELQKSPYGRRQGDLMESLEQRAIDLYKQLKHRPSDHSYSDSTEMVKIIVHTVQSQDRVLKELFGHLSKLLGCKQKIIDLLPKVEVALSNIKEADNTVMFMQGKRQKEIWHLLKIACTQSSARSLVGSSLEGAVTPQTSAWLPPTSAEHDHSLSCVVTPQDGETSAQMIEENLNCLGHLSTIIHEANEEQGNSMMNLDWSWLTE
T1 sequence (Q9Y6K9 whole entry partner): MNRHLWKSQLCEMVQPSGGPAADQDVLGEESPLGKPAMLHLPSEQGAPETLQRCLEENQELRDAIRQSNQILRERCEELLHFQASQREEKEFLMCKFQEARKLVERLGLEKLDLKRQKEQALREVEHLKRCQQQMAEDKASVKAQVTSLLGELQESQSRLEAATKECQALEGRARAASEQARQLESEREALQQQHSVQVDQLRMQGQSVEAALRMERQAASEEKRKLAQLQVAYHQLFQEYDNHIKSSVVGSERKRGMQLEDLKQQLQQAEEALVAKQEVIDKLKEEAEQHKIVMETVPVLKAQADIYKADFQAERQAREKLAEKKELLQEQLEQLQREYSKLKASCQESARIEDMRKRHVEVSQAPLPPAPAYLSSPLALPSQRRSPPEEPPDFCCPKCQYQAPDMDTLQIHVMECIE
The experiment in a line: IKK immunoprecipitation kinase assay and Western blot after FUT treatment of cells. In kind it is cell-based. The method, then:
(§1) After FUT treatment, the human pancreas cancer cell line […]-28 was rinsed with ice-cold PBS to prepare 800 μg of cytoplasmic fraction. After adding glutathione sepharose beads (Amersham Pharmacia Biotech), the sample was invertedly mixed at 4° C. for 3 hours to remove non-specific absorption fractions. 4 μg of anti-IKK1/2 antibody (Santa Cruz Biotechnology) were added to the supernatant for reaction at 4° C. overnight. After adding glutathione sepharose beads, the sample was further mixed at 4° C. for 3 hours. The beads containing bound immunocomplex were rinsed twice with PBS and then subjected to immunoprecipitation and measurements of enzyme activity. To conduct the measurements of enzyme activity, the above mentioned beads were rinsed with kinase buffer (25 mM HEPES containing 150 mM NaCl, 25 mM beta-glycerophosphate and 10 mM MgCl2) to perform enzyme reaction. 5 uCi of ^32P-labeled y-ATP and 1 μg of the substrate GST-IκBα were reacted in the kinase buffer for 30 minutes at 37° C. The reaction was terminated by adding SDS sample buffer. The sample was analyzed by SDS-PAGE followed by autoradiography for detection.
(In general: Immunoblotting shows a protein as a band on a membrane.)

The target in a further data set is T2, IKK1 (Homo sapiens, UniProt O15111).
T2 construct: endogenous in cells; host or cells: MDAPanc-28 (human pancreas cancer cell line)
T2 sequence (O15111 whole entry): as the sequence (O15111 whole entry partner) above
T2 sequence (O14920 whole entry partner): as the sequence (O14920 whole entry) above
T2 sequence (Q9Y6K9 whole entry partner): as the sequence (Q9Y6K9 whole entry partner) above
The description is as above. It is filed as cell-based. The procedure:
as §1

In the next data set the test system is MMP-9. The experiment in a line: Western blot of MMP-9 expression. It is filed as cell-based, human. The following applies: MDAPanc-28 cytoplasmic fraction, 0 or 80 μg/ml FUT. The method, then:
Cytoplasmic fraction was prepared from the human pancreas cancer cell line […]-28 treated with either 0 μg/ml or 80 μg/ml of FUT. Western blot was performed for the obtained cytoplasmic proteins to examine MMP-2 and MMP-9 expression. More specifically, the experiment was performed by the method described in Example 2. Rabbit polyclonal anti-MMP-2 antibody, goat polyclonal anti-MMP-9 antibody and mouse anti-B-actin antibody (Santa Cruz Biotechnology, Inc.) were used for detection.

A further data set has as its system Murine fiber cells. Put plainly: Effect on survival rate of normal cells. It is filed as cell-based. To be noted: 80 μg/ml. The source says: Therefore, the present inventors next examined the effect of FUT treatment on normal cells. Murine fiber cells were used as normal cells.
The subject of data set [2] is human pancreas cancer cell line MDAPanc-28. The experiment in a line: DNA fragmentation assay (apoptosis). In kind it is cell-based. The following applies: MDAPanc-28. The method, then:
After adding 1000 U/ml of protease K, the sample was further incubated for 5 hours at 50° C. After extracting DNA with phenol/chloroform/isoamyl alcohol, isopropanol and ammonium acetate were added to the collected water-soluble fractions in order to collect precipitates. The precipitates were then rinsed with 70% ethanol and dissolved in Tris-EDTA buffer. Electrophoresis was performed on a 2% agarose gel and DNA bands were confirmed by using ethidium bromide. The present inventors examined the concomitant effect of FUT and TNF-α on apoptosis in cancer cells. After treatment with TNF-α for 24 hours, the human pancreas cancer cell line […]-28 was further cultured for 24 hours with various concentrations of FUT being added. Cells prepared were then subjected to an MTT assay according to the method generally known to calculate the cell survival rates. Also, DNA was extracted to perform a DNA fragmentation assay. More specifically, with regard to the MTT assay, each well was seeded with 2000 cells per 100 μl of culture medium in a 96-well microtiterplate, followed by the above mentioned treatment. […] The absorbance of the samples was measured at 570 nm by using a microplate reader. […] Two independent experiments were performed, and the average was calculated. […]

[3] abbreviates: MDAPanc-28 cytoplasmic fraction, before and after FUT treatment.
[4] abbreviates: immunoprecipitate from FUT-treated MDAPanc-28, substrate GST-IκBα.

Bounds are passed on as bounds.

For the compound `N=C(N)c1ccc2cc(OC(=O)c3ccc(N=C(N)N)cc3)ccc2c1` [FUT, 6-amidino-2-naphthyl p-guanidinobenzoate dimethanesulfonate], the PEA3 expression result in the data set on PEA3 is “increased PEA3 expression overtime”. For the same compound, the “caspase 8 activation with TNF-α stimulation” value in the data set with caspase 8 (MDAPanc-28, FUT 80 μg/ml pretreatment then TNF-α 5 ng/ml 24 hours, compared to FUT alone) was “enhanced FADD phosphorylation and caspase 8 activation”. Moreover, in the data set on caspase 8 (MDAPanc-28, FUT 80 μg/ml, 0 to 24 hours), the “caspase 8 activation over time” value is given as “later on promoted caspase 8 activation”. For the same compound, the “caspase 8 activation” value with caspase 8 (MDAPanc-28, various concentrations of FUT for 24 hours) is “activated by FUT in a concentration-dependent manner”. In addition, in the data set with caspase 8 (cells with TNFRI expression downregulated using siRNA, after FUT treatment), the “caspase 8 activation in TNFRI-downregulated cells” value is recorded as “nor caspase 8 activation”. Also, the cell survival rate result in data set [1] (MDAPanc-28, TNF-α 24 hours then various concentrations of FUT 24 hours, MTT, compared with control cells) was “significantly declined”. The “speed of inhibitory effect on proliferation” value in data set [1] (MDAPanc-28, comparison of FUT with PS1145) was “more rapid inhibitory effect than PS1145”. Moreover, the “cell proliferation / living cell ratio” value in data set [1] (MDAPanc-28, single agent, 24 hours and 48 hours, MTT) is listed as “inhibited in a FUT concentration-dependent manner”. Moreover, the “living cell ratio at 48 hours compared to 24 hours” value in data set [1] (MDAPanc-28, single agent, MTT) is recorded as “slightly increased at 48 hours compared to the ratio at 24 hours”. Also, the “expression level of IKK2” value at IKK2 (setting [3]) is recorded as “remain intact”. Further, the “enzyme activity of IKK2” value on IKK2 (setting [4]) was “reduces the enzyme activities of IKK1 and IKK2”. In addition, the “expression level of IKK1” value at IKK1 (setting [3]) was “remain intact”. In addition, on IKK1 (setting [4]), the “enzyme activity of IKK1” value was “reduces the enzyme activities of IKK1 and IKK2”. In addition, the MMP-9 expression entry in the data set with MMP-9 is given as “inhibited by FUT in a concentration-dependent manner”. In the data set with Murine fiber cells, the “cell survival rate of normal cells” value is “had no effect on cell survival rate”. In data set [2], the “concentration at which DNAs were fragmented (apoptosis induction)” value was ≥ 40 µg/mL.

Values taken from US20100015249A1, “Antitumor agent containing 6'-amidino-2'-naphthyl 4-guanidinobenzoate or salt thereof” (priority 2005, published 2010).
